From patent US11000033B2, “Ketone or oxime compound, and herbicide” (NISSAN CHEMICAL CORPORATION, priority 2014, dated 2021)

Tests used:
Type in all cases: in vivo
Scirpus juncoides = test: Test Example 2: herbicidal activity, application during weed generation in submerged conditions (symbol B); conditions: Table 23; application herbicide amount 320 g/ha; grade 0-5 by criteria of Test Example 1
Method in brief: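 Paddy pot test, submerged (4 cm water), alluvial soil, mixed sowing; greenhouse 25–30° C. Emulsion formulation diluted to predetermined rate, applied onto floodwater at 1–2 leaf stage. Visual herbicidal rating at 3 wk post-treatment.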

[1] = system: Echinochloa crus-galli var. crus-galli; test: Test Example 3: herbicidal effect by foliage application, Wagner pot (symbol H); conditions: application herbicide amount 320 g/ha
Method in brief: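 Foliar spray of water-diluted emulsion formulation at a predetermined herbicide amount onto 14-day-old plants in flooded alluvial soil (water depth 0.1–0.5 cm), greenhouse 25–30 °C; rice sown alongside. Scored 3 wk post-application on set criteria.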

[2] = system: directly sowed rice plant; test: Test Example 3: effect on crop by foliage application, Wagner pot (symbol b); conditions: application herbicide amount 320 g/ha
Method in brief: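 Steps: fill a 1/10000-are Wagner pot with alluvial soil; add water and mix to submerge at 0.1–0.5 cm depth; sow rice plus Echinochloa crus-galli var. crus-galli, Leptochloa chinensis and Cyperus difformis; grow in a 25–30 °C greenhouse.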

Veronica persica = test: Test Example 5: herbicidal effect by foliage application, plastic box (symbol R); conditions: 320 g/ha, 3 weeks after application
Method in brief: (§1)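 Sowing in sterilized diluvial soil, 14 days' greenhouse growth at 25° C. to 30° C., then uniform small-sprayer foliar application of aqueous emulsion dilution; plants scored three weeks afterwards.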

Monochoria vaginalis = test: Test Example 1: herbicidal activity, application before weed generation in submerged conditions (symbol C); conditions: application herbicide amount 320 g/ha
Method in brief: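 Compound emulsion was diluted to a set herbicide amount and applied to the water surface on the sowing day, into submerged (4 cm) alluvial-soil pots sown with mixed weed seeds and transplanted 2.5-leaf rice. Pots were held in a 25–30 °C greenhouse, and weeds were scored 0–5 by herbicidal ratio after 3 weeks.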

Galium spurium = test: Test Example 4: herbicidal effect by soil treatment (symbol Q)
Method in brief: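 Seeds were sown in sterilized diluvial soil, covered with about 1.5 cm of soil, and the soil surface was sprayed with a water-diluted emulsion of the compound at a predetermined rate. Plants grew in a greenhouse at 25° C. to 30° C.; effects were scored visually 3 weeks after application.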

soybean = test: Test Example 5: effect on crop by foliage application, plastic box (symbol d); conditions: 320 g/ha, 3 weeks after application
Method in brief: (§2)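 Sterilized diluvial soil, plastic box (21 × 13 × 7 cm); spot sowing, ~1.5 cm soil cover; greenhouse 25–30° C.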

rapeseed = test: Test Example 5: effect on crop by foliage application, plastic box (symbol g); conditions: 320 g/ha, 3 weeks after application
Method in brief: as §2

Avena fatua = test: Test Example 5: herbicidal effect by foliage application, plastic box (symbol I); conditions: 320 g/ha, 3 weeks after application
Method in brief: as §1

beet = test: Test Example 4: effect on crop by soil treatment (symbol f); conditions: for f: beet, effect grade on crop: 320 g/ha
Method in brief: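 Greenhouse culture at 25° C. to 30° C. followed sowing of seed in spots on sterilized diluvial soil with a soil cover close to 1.5 cm thick.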

[3] = application herbicide amount 320 g/ha

Row | SMILES | Herbicidal effect grade, B: Scirpus juncoides (Scirpus juncoides) | herbicidal effect on H (Echinochloa crus-galli var. crus-galli), grade 0-5 [1] | effect on crop b (directly sowed rice plant), grade 0-5 [2] | R: Veronica persica, herbicidal effect grade (Veronica persica) | Herbicidal effect grade, C: Monochoria vaginalis (Monochoria vaginalis) | Q: Galium spurium, herbicidal effect grade (Galium spurium; [3]) | d: soybean, effect on crop grade (soybean) | g: rapeseed, effect on crop grade (rapeseed) | I: Avena fatua, herbicidal effect grade (Avena fatua) | f: beet, effect on crop grade (beet; [3]) | R: Veronica persica, herbicidal effect (criteria 0-5) (Veronica persica) | Q: Galium spurium, herbicidal effect grade (Galium spurium; 320 g/ha) | d: soybean, effect on crop (criteria 0-5) (soybean) | g: rapeseed, effect on crop (criteria 0-5) (rapeseed) | I: Avena fatua, herbicidal effect (criteria 0-5) (Avena fatua) | f: beet, effect grade on crop (beet)
1 | Cc1cc(C)c(C2=C(O)CC(CC(=O)C3CC3)C2=O)c(C)c1 (stereo not drawn) [2-017] | 4 (Herbicidal ratio of 70% or higher and lower than 90%) | 5 (Herbicidal ratio of 90% or more (almost completely withered)) | 5 (Herbicidal ratio of 90% or more (almost completely withered)) | 0 (Herbicidal ratio of 5% or lower (almost no effect)) | 3 (Herbicidal ratio of 40% or higher and lower than 70%) | 0 (Herbicidal ratio of 5% or lower (almost no effect)) | 0 (Herbicidal ratio of 5% or lower (almost no effect)) | 4 (Herbicidal ratio of 70% or higher and lower than 90%) | 4 (Herbicidal ratio of 70% or higher and lower than 90%) | 0 (Herbicidal ratio of 5% or lower (almost no effect)) |  |  |  |  |  | 
2 | COCCOC(=O)OC1=C(c2c(C)cc(C)cc2C)C(=O)C(CC(C)=NOC)C1 (stereo not drawn) [1-147] | 5 (Herbicidal ratio of 90% or more (almost completely withered)) | 5 (Herbicidal ratio of 90% or more (almost completely withered)) | 5 (Herbicidal ratio of 90% or more (almost completely withered)) |  | 1 (Herbicidal ratio of 5% or higher and lower than 20%) |  |  |  |  |  | 4 (Herbicidal ratio of 70% or higher and lower than 90%) | 0 (Herbicidal ratio of 5% or lower (almost no effect)) | 3 (Herbicidal ratio of 40% or higher and lower than 70%) | 4 (Herbicidal ratio of 70% or higher and lower than 90%) | 5 (Herbicidal ratio of 90% or more (almost completely withered)) | 0 (Herbicidal ratio of 5% or lower (almost no effect))
3 | CON=C(C)CC1CC(OC(=O)c2ccccc2C(F)(F)F)=C(c2c(C)cc(C)cc2C)C1=O (stereo not drawn) [1-154] | 4 (Herbicidal ratio of 70% or higher and lower than 90%) | 5 (Herbicidal ratio of 90% or more (almost completely withered)) | 5 (Herbicidal ratio of 90% or more (almost completely withered)) |  | 2 (Herbicidal ratio of 20% or higher and lower than 40%) |  |  |  |  |  | 3 (Herbicidal ratio of 40% or higher and lower than 70%) | 0 (Herbicidal ratio of 5% or lower (almost no effect)) | 3 (Herbicidal ratio of 40% or higher and lower than 70%) | 4 (Herbicidal ratio of 70% or higher and lower than 90%) | 5 (Herbicidal ratio of 90% or more (almost completely withered)) | 0 (Herbicidal ratio of 5% or lower (almost no effect))
